The values that follow come from paper PMC6400181, “Calixarene-mediated assembly of a small antifungal protein” (IUCrJ, 2019).

The subject of one experiment is cytochrome c. On the set-up: method as in Rennie et al., 2017. The conditions noted are these: relative to sclx4, ref Rennie et al., 2017; cited from earlier work.
The target of experiment [1] is PAF (Penicillium antifungal protein) (Penicillium chrysogenum, UniProt Q01701). Nature of the experiment: Isothermal titration calorimetry of PAF–sclxn complexation. The conditions noted are these: ITC, median (2.5% quantile, 97.5% quantile). In kind it is binding. Here is the method:
PAF samples were dissolved in 10 mM sodium phosphate pH 6.0. The same buffer was used to dilute stocks of sclx4 (7.1 mM, PAF 0.5 mM), sclx6 (3.6 mM, PAF 0.5 mM) and sclx8 (2.5 mM, PAF 0.3 mM) to the required concentration. Samples were degassed prior to the titration. Measurements were made at 25°C using a Microcal ITC-200 instrument. Titrations were performed in duplicate with similar trends between each replicate. A single replicate from each calixarene was used for model fitting. Separate titrations of each calixarene into buffer confirmed that the heats of dilution were small, exothermic and approximately constant.
NITPIC (Keller et al., 2012[▸]) was used for baseline correction and integration of the thermograms. Pytc (Duvvuri et al., 2018[▸]) was used to perform model fitting and parameter estimation. The system of equations relating the independent variables of the model (total concentrations) to the experimental observations (heat generated during injections) for the single-site and bidentate-ligand models are as follows.
Single-site model, [drawing 1] [drawing 2] [drawing 3] where [P T]i is the total cell concentration of protein at the ith injection (independent variable), [L T]i is the total cell concentration of ligand at the ith injection (independent variable), K 1 is the equilibrium association constant (fit parameter), ΔH is the enthalpy (fit parameter) associated with K, V cell is the volume of the cell, vi is the volume of the ith injection, qi is the heat generated from the ith injection (dependent variable) and q dil is the heat of dilution (fit parameter, assumed to be constant)
Bidentate-ligand model, [drawing 4] [drawing 5] [drawing 6] where K 1 and K 2 are the microscopic equilibrium association constants (fit parameters), ΔH 1 and ΔH 2 are the enthalpies (fit parameters) associated with K 1 and K 2, respectively
The expressions for mass balance of the protein and ligand can be represented by equations (1) or (4). Equation (2) or (5) can be used to define the equilibrium constants. For the bidentate ligand model, equation (5) was solved numerically (the Levenberg–Marquardt algorithm) to yield the free-protein ([P]i) and free-ligand ([L]i) concentrations. The free concentrations were used to compute the concentrations of the other states via the equilibrium equations. The heat generated from a given injection was determined using either equations (3) or (6). Parameters were constrained to physically reasonable bounds (e.g. K 1 and K 2 values between 10^2 and 10^10 M ^−1) and best-fits were obtained by maximum likelihood starting from a range of initial estimates. Parameter errors and correlations were estimated using a Bayesian approach (Markov chain Monte Carlo simulations). The error for each integrated heat was determined using NITPIC (Keller et al., 2012[▸]).
Isothermal titration calorimetry was used to characterize the PAF–sclxn binding affinities and stoichiometries (Fig. 7 ▸). The data were fitted to a single-site or a bidentate-ligand model. The latter model describes a bidentate ligand that can bind two protein molecules and was necessary to describe the obviously biphasic data for sclx8. The choice of this model is supported by the observation of a PAF–sclx8–PAF dimer in the crystal structure, and by the spectral broadening in the NMR experiments. All of the fit parameters were well determined by the data (Table 1 ▸), with parameter errors assessed by Bayesian methods (Patil et al., 2010[▸]).
(Isothermal titration calorimetry measures the heat released or taken up as one component is titrated into another.)

Where [2] appears, read: single-site model, 10 mM sodium phosphate pH 6.0, 25°C.
Where [3] appears, read: bidentate-ligand model, binding the first molecule of PAF (K1), pH 6.0, 25°C.
Where [4] appears, read: bidentate-ligand model, binding the second molecule of PAF (K2), pH 6.0, 25°C.
Setting [5] is: bidentate-ligand model, first molecule of PAF (ΔH1), pH 6.0, 25°C.
Where [6] appears, read: bidentate-ligand model, first molecule of PAF, pH 6.0, 25°C.
[7] abbreviates: bidentate-ligand model, second molecule of PAF (ΔH2), pH 6.0, 25°C.
The mark [8] stands for this setting: bidentate-ligand model, second molecule of PAF, pH 6.0, 25°C.

As a reminder, the Kd is the concentration at which binding is half-saturated. Higher therefore signals a looser complex.

Sequence of PAF (Penicillium antifungal protein) (Q01701 entry or part of it): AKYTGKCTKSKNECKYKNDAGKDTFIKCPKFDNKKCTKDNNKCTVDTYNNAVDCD

On to `O=P(O)(O)c1cc2c(O)c(c1)Cc1cc(P(=O)(O)O)cc(c1O)Cc1cc(P(=O)(O)O)cc(c1O)Cc1cc(P(=O)(O)O)cc(c1O)Cc1cc(P(=O)(O)O)cc(c1O)Cc1cc(P(=O)(O)O)cc(c1O)C2` [pclx6, phosphonato-calix[6]arene], for which the “increase in affinity (with respect to sclx4)” value in the experiment with cytochrome c is “approximately tenfold”.
As for `O=S(=O)(O)c1cc2c(O)c(c1)Cc1cc(S(=O)(=O)O)cc(c1O)Cc1cc(S(=O)(=O)O)cc(c1O)Cc1cc(S(=O)(=O)O)cc(c1O)C2` [sclx4], in experiment [1] (setting [2]), binding was put at a Kd of 107 µM; the TΔS is −5.6 (0.2, 0.2) kJ mol^−1; the ΔH is −16.9 (0.1, 0.1) kJ mol^−1.
For `O=S(=O)(O)c1cc2c(O)c(c1)Cc1cc(S(=O)(=O)O)cc(c1O)Cc1cc(S(=O)(=O)O)cc(c1O)Cc1cc(S(=O)(=O)O)cc(c1O)Cc1cc(S(=O)(=O)O)cc(c1O)Cc1cc(S(=O)(=O)O)cc(c1O)C2` [sclx6], the Kd in experiment [1] (setting [3]) came to 47.8 µM; in experiment [1] (setting [4]), 45.8 µM; in experiment [1] (setting [2]), 15.4 µM. The ΔH in experiment [1] (setting [5]) is −9.2 (0.1, 0.2) kJ mol^−1; in experiment [1] (setting [7]), −20.1 (0.4, 0.4) kJ mol^−1; in experiment [1] (setting [2]), −28.2 (0.2, 0.1) kJ mol^−1. For the same compound, the TΔS in experiment [1] (setting [6]) was −15.4 (0.4, 0.3) kJ mol^−1; in experiment [1] (setting [8]) it was −4.6 (0.6, 0.6) kJ mol^−1; in experiment [1] (setting [2]), −0.7 (0.2, 0.2) kJ mol^−1.
Turning to `O=S(=O)(O)c1cc2c(O)c(c1)Cc1cc(S(=O)(=O)O)cc(c1O)Cc1cc(S(=O)(=O)O)cc(c1O)Cc1cc(S(=O)(=O)O)cc(c1O)Cc1cc(S(=O)(=O)O)cc(c1O)Cc1cc(S(=O)(=O)O)cc(c1O)Cc1cc(S(=O)(=O)O)cc(c1O)Cc1cc(S(=O)(=O)O)cc(c1O)C2` [sclx8, Sulfonato-calix[8]arene], the Kd in experiment [1] (setting [3]) worked out at 10.6 µM; in experiment [1] (setting [4]) it was 33.5 µM. Besides, the ΔH in experiment [1] (setting [5]) is −3.5 (0.3, 0.3) kJ mol^−1; in experiment [1] (setting [7]), −36.0 (1.7, 1.4) kJ mol^−1. Moreover, the TΔS is reported as −24.8 (0.3, 0.3) kJ mol^−1 in experiment [1] (setting [6]) and 10.5 (1.8, 2.1) kJ mol^−1 in experiment [1] (setting [8]).
